Measurements published in US20220289753A1, “SHP2 INHIBITORS” (IRBM S.P.A., priority 2019, published 2022).
Like-named read-outs stand apart in the source and are kept apart here.

Columns and labels:
[1] = system: ERK phosphorylation in KYSE-520 cells; experiment: Phospho-ERK cellular assay (Advanced phospho-ERK1/2 (Thr202/Tyr204) TR-FRET kit); format: cell-based; settings: Homo sapiens, KYSE-520, 2 h, read-out: pERK IC50
Experimental: Phospho-ERK Cellular Assay
ERK phosphorylation was detected using the “Advanced phospho-ERK1/2 (Thr202/Tyr204)” TR-FRET kit (Cisbio, Cat #64AERPEG/H), following the manufacturer reagents and instructions. […] After an overnight incubation, cells were treated with DMSO serial diluted compounds and incubated for 2 h at 37° C. After incubation, 2 μL/well of 4× Lysis Buffer (Cisbio 64KL1FDF), were added and incubated with cells for 30 min on gentle shaking. Finally, lysates were added with 2 μL/well of Eu cryptate (donor) and D2 (acceptor) conjugated antibodies (as provided by the Cisbio kit #64AERPEG/H) diluted 1:100 in Detection Buffer (as provided by the Cisbio kit #64AERPEG/H). Plates were then sealed and incubated at room temperature in the dark. After an overnight incubation, the TR-FRET signal was detected on a suitable reader (Envision, PerkinElmer). The lower the TR-FRET signal the higher the higher the SHP2 inhibition in cells. […] The percentage activity is fitted against the compound dilutions with a four-parameter logistic regression. The inflection point (i.e. the concentration at which half-maximal inhibition is achieved) is the IC50.

[2] = biological target: T1, SHP-2 enzyme (Met1-Leu525) (Homo sapiens, UniProt Q06124); experiment: SHP2 inhibition enzymatic assay (DiFMUP substrate, IRS1 peptide activation); format: biochemical; settings: SHP2 wt; activated by 500 nM IRS1 peptide; 75 μM DiFMUP substrate
T1 construct: synthetized by Origene, Met1-Leu525, cat #TP750155; purchased Origene TP750155
T1 sequence (Q06124 1-525): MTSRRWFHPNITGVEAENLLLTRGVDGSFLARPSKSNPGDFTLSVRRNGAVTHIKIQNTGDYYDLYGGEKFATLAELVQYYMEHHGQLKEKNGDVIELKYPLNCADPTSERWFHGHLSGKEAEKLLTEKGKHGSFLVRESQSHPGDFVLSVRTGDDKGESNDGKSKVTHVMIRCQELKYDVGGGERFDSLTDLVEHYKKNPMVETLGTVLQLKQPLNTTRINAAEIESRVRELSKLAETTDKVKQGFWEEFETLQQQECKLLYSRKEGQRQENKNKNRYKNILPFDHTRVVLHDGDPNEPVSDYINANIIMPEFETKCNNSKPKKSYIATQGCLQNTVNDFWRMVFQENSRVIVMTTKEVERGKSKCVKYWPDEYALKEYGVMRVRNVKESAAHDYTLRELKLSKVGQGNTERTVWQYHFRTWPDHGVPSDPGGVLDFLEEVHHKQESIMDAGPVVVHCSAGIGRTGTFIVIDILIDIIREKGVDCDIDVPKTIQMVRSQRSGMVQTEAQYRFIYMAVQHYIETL
Procedure, shortened: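 SHP-2 (Met1-Leu525, 0.5 nM final) preincubated 30 min with compounds and IRS1 activating peptide in HEPES pH 7.2 buffer with NaCl, KCl, EDTA, tween-20, 5 mM DTT. DiFMUP then added for 30 min at room temperature and fluorescence read. IC50 from four-parameter logistic fit of % inhibition.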

Q: `Nc1nccc(Sc2cnc3[nH]c(N4CCC5(CC4)Oc4ccccc4[C@H]5N)nc3n2)c1Cl` [Example 35, (R)-1′-(5-((2-amino-3-chloropyridin-4-yl)thio)-1H-imidazo[4,5-b]pyrazin-2-yl)-3H-spiro[benzofuran-2,4′-piperidin]-3-amine] was tested. Which IC50 ([1]; KYSE-520 cells, 2 h at 37° C., TR-FRET) did it give?
A: < 1 µM

Q: With `Cc1cc(Sc2cnc3[nH]c(N4CCC(C)(N)CC4)nc3n2)c2ccccc2n1` [Example 106, 4-methyl-1-(5-((2-methylquinolin-4-yl)thio)-1H-imidazo[4,5-b]pyrazin-2-yl)piperidin-4-amine] as the compound, how does the IC50 [2] read?
A: > 3 µM

Q: `Nc1cnc2c(c1)CN(c1nc3nc(Sc4cccnc4C(F)(F)F)cnc3[nH]1)CC2` [Example 108, 6-(5-((2-(trifluoromethyl)pyridin-3-yl)thio)-1H-imidazo[4,5-b]pyrazin-2-yl)-5,6,7,8-tetrahydro-1,6-naphthyridin-3-amine] was tested. Which IC50 [2] did it give?
A: > 3 µM

Q: How did the IC50 [2] turn out when `NC1CCC2OC1CC2Nc1nc2nc(Sc3cccnc3C(F)(F)F)cnc2[nH]1` (stereo not shown) [Example 109, N6-(5-((2-(trifluoromethyl)pyridin-3-yl)thio)-1H-imidazo[4,5-b]pyrazin-2-yl)-8-oxabicyclo[3.2.1]octane-2,6-diamine] was run?
A: > 3 µM

Q: How did the IC50 [2] turn out when `FC(F)(F)c1ncccc1Sc1cnc2[nH]c(NCC3CCNCC3)nc2n1` [Example 110, N-(piperidin-4-ylmethyl)-5-((2-(trifluoromethyl)pyridin-3-yl)thio)-1H-imidazo[4,5-b]pyrazin-2-amine] was run?
A: > 3 µM

Q: With `FC(F)(F)c1ncccc1Sc1cnc2[nH]c(NCC3COCCN3)nc2n1` (stereo not shown) [Example 111, N-(morpholin-3-ylmethyl)-5-((2-(trifluoromethyl)pyridin-3-yl)thio)-1H-imidazo[4,5-b]pyrazin-2-amine] as the compound, how does the IC50 [2] read?
A: > 3 µM

Q: With `FC(F)(F)c1ncccc1Sc1cnc2[nH]c(NCc3cccnc3N3CCOCC3)nc2n1` [Example 112, N-((2-morpholinopyridin-3-yl)methyl)-5-((2-(trifluoromethyl)pyridin-3-yl)thio)-1H-imidazo[4,5-b]pyrazin-2-amine] as the compound, how does the IC50 [2] read?
A: > 3 µM

Q: How did the IC50 [2] turn out when `CC(C)(CNc1nc2nc(Sc3cccnc3C(F)(F)F)cnc2[nH]1)Cc1cccnc1` [Example 113, N-(2,2-dimethyl-3-(pyridin-3-yl)propyl)-5-((2-(trifluoromethyl)pyridin-3-yl)thio)-1H-imidazo[4,5-b]pyrazin-2-amine] was run?
A: > 3 µM

Q: For `Cc1c(Cl)cccc1Sc1cnc2[nH]c(N3CCC(C)(N)CC3)nc2n1` [Example 114, 1-(5-((3-chloro-2-methylphenyl)thio)-1H-imidazo[4,5-b]pyrazin-2-yl)-4-methylpiperidin-4-amine], which IC50 [2] is on record?
A: < 0.5 µM

Q: `CC(C)c1ccccc1Sc1cnc2[nH]c(N3CCC(C)(N)CC3)nc2n1` [Example 115, 1-(5-((2-isopropylphenyl)thio)-1H-imidazo[4,5-b]pyrazin-2-yl)-4-methylpiperidin-4-amine] was tested. Which IC50 [2] did it give?
A: 0.5 to 3 µM

Q: With `CC1(N)CCN(c2nc3nc(Sc4cccc5[nH]cnc45)cnc3[nH]2)CC1` [Example 116] as the compound, how does the IC50 [2] read?
A: 0.5 to 3 µM

Q: For `CC1(N)CCN(c2nc3nc(Sc4ccccc4S(C)(=O)=O)cnc3[nH]2)CC1` [Example 117, 4-methyl-1-(5-((2-(methylsulfonyl)phenyl)thio)-1H-imidazo[4,5-b]pyrazin-2-yl)piperidin-4-amine], which IC50 [2] is on record?
A: > 3 µM

Q: For `N[C@@H]1c2ccccc2CC12CCN(c1nc3nc(Sc4cccnc4C(F)(F)F)c(Cl)nc3[nH]1)CC2` [Example 118, (S)-1′-(6-chloro-5-((2-(trifluoromethyl)pyridin-3-yl)thio)-1H-imidazo[4,5-b]pyrazin-2-yl)-1,3-dihydrospiro[indene-2,4′-piperidin]-1-amine], which IC50 [2] is on record?
A: < 0.5 µM

Q: How did the IC50 [2] turn out when `CC1(N)CCN(c2nc3nc(Sc4cccnc4C(F)(F)F)cnc3s2)CC1` [Example 119, 4-methyl-1-(5-((2-(trifluoromethyl)pyridin-3-yl)thio)thiazolo[4,5-b]pyrazin-2-yl)piperidin-4-amine] was run?
A: 0.5 to 3 µM

Q: With `N[C@@H]1CCCC12CCN(c1nc3ncc(N4CCCc5ncccc54)nc3[nH]1)CC2` [Example 120, (R)-8-(6-(3,4-dihydro-1,5-naphthyridin-1(2H)-yl)-1H-imidazo[4,5-b]pyrazin-2-yl)-8-azaspiro[4.5]decan-1-amine] as the compound, how does the IC50 [2] read?
A: > 3 µM

Q: `CC1(N)CCN(c2nc3nc(Nc4cccc(Cl)c4Cl)cnc3[nH]2)CC1` [Example 121, 2-(4-amino-4-methylpiperidin-1-yl)-N-(2,3-dichlorophenyl)-1H-imidazo[4,5-b]pyrazin-5-amine] was tested. Which IC50 [2] did it give?
A: > 3 µM

Q: Which IC50 [2] does the source give for `CC1(N)CCN(c2nc3ncc(Oc4cccc(Cl)c4Cl)nc3[nH]2)CC1` [Example 122, 1-(5-(2,3-dichlorophenoxy)-1H-imidazo[4,5-b]pyrazin-2-yl)-4-methylpiperidin-4-amine] here?
A: 0.5 to 3 µM

Q: `FC(F)(F)c1ncccc1Sc1cnc2[nH]c(NCCCN3CCOCC3)nc2n1` [Example 123, N-(3-morpholinopropyl)-5-((2-(trifluoromethyl)pyridin-3-yl)thio)-1H-imidazo[4,5-b]pyrazin-2-amine] was tested. Which IC50 [2] did it give?
A: > 3 µM

Q: `CC1(C)C2CNCC1CN(c1nc3nc(Sc4cccnc4C(F)(F)F)cnc3[nH]1)C2` [Example 124, 2-(9,9-dimethyl-3,7-diazabicyclo[3.3.1]nonan-3-yl)-5-((2-(trifluoromethyl)pyridin-3-yl)thio)-1H-imidazo[4,5-b]pyrazine] was tested. Which IC50 [1] did it give?
A: > 5 µM

Q: With `COCCn1c(N2CCC(C)(N)CC2)nc2nc(Sc3cccnc3C(F)(F)F)cnc21` [Example 129, 1-(1-(2-methoxyethyl)-5-((2-(trifluoromethyl)pyridin-3-yl)thio)-1H-imidazo[4,5-b]pyrazin-2-yl)-4-methylpiperidin-4-amine] as the compound, how does the IC50 [2] read?
A: 0.5 to 3 µM

Q: With `CC1(N)CCN(c2nc3ncc(-c4cccc(Cl)c4Cl)nc3[nH]2)CC1` [Example 131, 1-[5-(2,3-Dichlorophenyl)-1H-imidazo[4,5-b]pyrazin-2-yl]-4-methylpiperidin-4-amine] as the compound, how does the IC50 [2] read?
A: 0.5 to 3 µM

Q: With `NC(=O)Cn1c(N2CCC3(CC2)Cc2ccccc2[C@H]3N)nc2nc(Sc3cccnc3C(F)(F)F)cnc21` [Example 137, (S)-2-(2-(1-amino-1,3-dihydrospiro[indene-2,4′-piperidin]-1′-yl)-5-((2-(trifluoromethyl)pyridin-3-yl)thio)-1H-imidazo[4,5-b]pyrazin-1-yl)acetamide] as the compound, how does the IC50 [2] read?
A: > 3 µM

Q: How did the IC50 [2] turn out when `Nc1nccc(Sc2cnc3[nH]c(N4CCC5(CC4)Oc4ccccc4[C@H]5N)nc3n2)c1Cl` [Example 159, (R)-1′-(5-((2-amino-3-chloropyridin-4-yl)thio)-1H-imidazo[4,5-b]pyrazin-2-yl)-3H-spiro[benzofuran-2,4′-piperidin]-3-amine] was run?
A: < 0.5 µM

Q: `Nc1nccc(Sc2cnc3[nH]c(N4CCC5(CC4)Cc4ccc(O)cc4[C@H]5N)nc3n2)c1Cl` [Example 208, (S)-1-amino-1′-(5-((2-amino-3-chloropyridin-4-yl)thio)-1H-imidazo[4,5-b]pyrazin-2-yl)-1,3-dihydrospiro[indene-2,4′-piperidin]-6-ol] was tested. Which IC50 [2] did it give?
A: < 0.5 µM

Q: For `Nc1cnccc1Sc1cnc2[nH]c(N3CCC4(CC3)Cc3ccccc3[C@H]4N)nc2n1` [Example 210, (S)-1′-(5-((3-aminopyridin-4-yl)thio)-1H-imidazo[4,5-b]pyrazin-2-yl)-1,3-dihydrospiro[indene-2,4′-piperidin]-1-amine], which IC50 [2] is on record?
A: < 0.5 µM

Q: Which IC50 [2] does the source give for `CN(C)c1ncccc1Sc1cnc2[nH]c(N3CCC4(CC3)Cc3ccccc3[C@H]4N)nc2n1` [Example 211, (S)-1′-(5-((2-(dimethylamino)pyridin-3-yl)thio)-1H-imidazo[4,5-b]pyrazin-2-yl)-1,3-dihydrospiro[indene-2,4′-piperidin]-1-amine] here?
A: < 0.5 µM

Q: With `N[C@@H]1c2ccccc2CC12CCN(c1nc3nc(Sc4ccnc5ccsc45)cnc3[nH]1)CC2` [Example 212, (S)-1′-(5-(thieno[3,2-b]pyridin-7-ylthio)-1H-imidazo[4,5-b]pyrazin-2-yl)-1,3-dihydrospiro[indene-2,4′-piperidin]-1-amine] as the compound, how does the IC50 [2] read?
A: < 0.5 µM

Q: With `COc1ncccc1Sc1cnc2[nH]c(N3CCC4(CC3)Cc3ccccc3[C@H]4N)nc2n1` [Example 214, (S)-1′-(5-((2-methoxypyridin-3-yl)thio)-1H-imidazo[4,5-b]pyrazin-2-yl)-1,3-dihydrospiro[indene-2,4′-piperidin]-1-amine] as the compound, how does the IC50 [2] read?
A: < 0.5 µM
